Measured values: patent publication US11827628B2, “Compositions and methods for inhibition of the JAK pathway” (Rigel Pharmaceuticals, Inc., priority 2005, dated 2023)

Test system: up-regulation of ICAM-1 (CD54) by IFNγ in U937 human monocytic cells
Experiment: U937 IFNγ ICAM1 FACS Assay
Format: cell-based
Conditions: U937 cells stimulated with IFNγ; ICAM-1 expression by FACS; read-out: IC50, Example 44
Method in brief: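 Readout was the geometric-mean APC anti-ICAM-1 signal by FACS on live U937 monocytic cells, with % live cells also recorded. Cells were exposed to compounds (8 points, 3-fold dilutions, duplicates) for 30 min at 37 °C before 18–24 h of IFNγ stimulation. EC50 values were computed from the dose curve.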

Structure (SMILES): CCN(CC)CCNS(=O)(=O)c1ccc(Nc2ncc(F)c(Nc3ccc(OCc4cc(C)on4)c(C)c3)n2)cc1 [Compound I-245, N2-[4-(2-N,N-Diethylaminoethyl)aminosulfonylphenyl)-5-fluoro-N4-[3-methyl-4-(5-methylisoxazol-3-yl)methyleneoxyphenyl]-2,4-pyrimidinediamine]
- IC50: 4.19 µM

Structure (SMILES): CCN(CC)CCNS(=O)(=O)c1ccc(Nc2ncc(F)c(Nc3ccc(OCc4cc(C)on4)cc3)n2)cc1 [Compound I-246, N2-[4-(2-N,N-Diethylaminoethyl)aminosulfonylphenyl)-5-fluoro-N4-[4-(5-methylisoxazol-3-yl)methyleneoxyphenyl]-2,4-pyrimidinediamine]
- IC50: 0.873 µM

Structure (SMILES): Cc1cc(COc2ccc(Nc3nc(Nc4cccc(S(=O)(=O)N(Cc5oc(=O)oc5C)Cc5oc(=O)oc5C)c4)ncc3F)cc2)no1 [Compound I-248, N2-{3-[N-N-Di-[(5-Methyl-1,3-dioxolene-2-one-4-yl)methylene]]aminosulfonylphenyl}-5-fluoro-N4-[4-(5-methylisoxazol-3-yl)methyleneoxyphenyl]-2,4-pyrimidinediamine]
- IC50: 2.66 µM

Structure (SMILES): Cc1noc(COc2cccc(Nc3nc(Nc4cccc(S(N)(=O)=O)c4)ncc3F)c2)n1 [Compound I-252, N2-(3-Aminosulfonylphenyl)-5-fluoro-N4-[3-(3-methyl-1,2,4-oxadiazol-5-yl)methyleneoxyphenyl]-2,4-pyrimidinediamine]
- IC50: 2.47 µM

Structure (SMILES): Cc1noc(COc2cccc(Nc3nc(Nc4ccc(C)c(S(N)(=O)=O)c4)ncc3F)c2)n1 [Compound I-254, N2-(3-Aminosulfonyl-4-methylphenyl)-5-fluoro-N4-[3-(3-methyl-1,2,4-oxadiazol-5-yl)methyleneoxyphenyl]-2,4-pyrimidinediamine]
- IC50: 1.82 µM

Structure (SMILES): CNS(=O)(=O)c1cc(Nc2ncc(F)c(Nc3cccc(OCc4nc(C)no4)c3)n2)ccc1C [Compound I-255, 5-Fluoro-N2-[3-(N-methylaminosulfony)-4-methylphenyl]-N4-[3-(3-methyl-1,2,4-oxadiazol-5-yl)methyleneoxyphenyl]-2,4-pyrimidinediamine]
- IC50: 5.52 µM

Structure (SMILES): CCN(CC)CCNS(=O)(=O)c1ccc(Nc2ncc(F)c(Nc3cccc(OCc4nc(C)no4)c3)n2)cc1 [Compound I-256, N2-[4-(2-N,N-Diethylaminoethyl)aminosulfonylphenyl)-5-fluoro-N4-[3-(3-methyl-1,2,4-oxadiazol-5-yl)methyleneoxyphenyl]-2,4-pyrimidinediamine]
- IC50: 15.9 µM

Structure (SMILES): Cc1noc(COc2ccc(Nc3nc(Nc4cccc(S(=O)(=O)NCc5oc(=O)oc5C)c4)ncc3F)cc2)n1 [Compound I-257, N2-{3-[(N-5-Methyl-1,3-dioxolene-2-one-4-yl)methylene]aminosulfonylphenyl}-5-fluoro-N4-[4-(3-methyl-1,2,4-oxadiazol-5-yl)methyleneoxyphenyl]-2,4-pyrimidinediamine]
- IC50: 0.959 µM

Structure (SMILES): Cc1noc(COc2ccc(Nc3nc(Nc4cccc(S(N)(=O)=O)c4)ncc3F)cc2)n1 [Compound I-258, N2-(3-Aminosulfonylphenyl)-5-fluoro-N4-[4-(3-methyl-1,2,4-oxadiazol-5-yl)methyleneoxyphenyl]-2,4-pyrimidinediamine]
- IC50: 0.324 µM

Structure (SMILES): Cc1noc(COc2ccc(Nc3nc(Nc4ccc(C)c(S(N)(=O)=O)c4)ncc3F)cc2)n1 [Compound I-259, N2-(3-Aminosulfonyl-4-methylphenyl)-5-fluoro-N4-[4-(3-methyl-1,2,4-oxadiazol-5-yl)methyleneoxyphenyl]-2,4-pyrimidinediamine]
- IC50: 0.315 µM

Structure (SMILES): CNS(=O)(=O)c1cc(Nc2ncc(F)c(Nc3ccc(OCc4nc(C)no4)cc3)n2)ccc1C [Compound I-260, 5-Fluoro-N2-[3-N-(methyl)aminosulfonyl-4-methylphenyl)-N4-[4-(3-methyl-1,2,4-oxadiazol-5-yl)methyleneoxyphenyl]-2,4-pyrimidinediamine]
- IC50: 0.985 µM

Structure (SMILES): CCN(CC)CCNS(=O)(=O)c1ccc(Nc2ncc(F)c(Nc3ccc(OCc4nc(C)no4)cc3)n2)cc1 [Compound I-263, N2-[4-(2-N,N-Diethylaminoethyl)aminosulfonylphenyl)-5-fluoro-N4-[4-(3-methyl-1,2,4-oxadiazol-5-yl)methyleneoxyphenyl]-2,4-pyrimidinediamine]
- IC50: 0.665 µM

Structure (SMILES): Cc1noc(COc2ccc(Nc3nc(Nc4cc(C)c(Cl)c(S(N)(=O)=O)c4)ncc3F)cc2)n1 [Compound I-265, N2-(3-Aminosulfonyl-4-chloro-5-methylphenyl)-5-fluoro-N4-[4-(3-methyl-1,2,4-oxadiazol-5-yl)methyleneoxyphenyl]-2,4-pyrimidinediamine]
- IC50: 0.415 µM

Structure (SMILES): Cc1noc(COc2ccc(Nc3nc(Nc4ccc(F)c(S(N)(=O)=O)c4)ncc3F)cc2)n1 [Compound I-266, N2-(3-Aminosulfonyl-4-fluorophenyl)-5-fluoro-N4-[4-(3-methyl-1,2,4-oxadiazol-5-yl)methyleneoxyphenyl]-2,4-pyrimidinediamine]
- IC50: 0.824 µM

Structure (SMILES): Cc1noc(CCc2ccc(Nc3nc(Nc4ccc(F)c(S(N)(=O)=O)c4)ncc3F)cc2)n1 [Compound I-267, N2-(3-Aminosulfonyl-4-fluorophenyl)-5-fluoro-N4-[4-(3-methyl-1,2,4-oxadiazol-5-yl)ethylenephenyl]-2,4-pyrimidinediamine]
- IC50: 5.07 µM

Structure (SMILES): Cc1noc(COc2ccc(Nc3nc(Nc4ccc(S(N)(=O)=O)cc4)ncc3F)cc2)n1 [Compound I-268, N2-(4-Aminosulfonylphenyl)-5-fluoro-N4-(4-[3-methyl-1,2,4-oxadiazol-5-yl]methyleneoxyphenyl)-2,4-pyrimidinediamine]
- IC50: 0.219 µM

Structure (SMILES): Cc1nc(COc2ccc(Nc3nc(Nc4ccc(S(N)(=O)=O)cc4)ncc3F)cc2)no1 [Compound I-275, N2-(4-Aminosulfonyl)phenyl-5-fluoro-N4-[4-(5-methyl-1,2,4-oxadiazol-3-yl)methoxy]phenyl-2,4-pyrimidinediamine]
- IC50: 1.9 µM

Structure (SMILES): Cc1nc(COc2ccc(Nc3nc(Nc4cccc(S(N)(=O)=O)c4)ncc3F)cc2)no1 [Compound I-276, N2-(3-Aminosulfonyl)phenyl-5-fluoro-N4-[4-(5-methyl-1,2,4-oxadiazol-3-yl)methoxy]phenyl-2,4-pyrimidinediamine]
- IC50: 0.822 µM

Structure (SMILES): Cc1nnc(COc2ccc(Nc3nc(Nc4cccc(S(N)(=O)=O)c4)ncc3F)cc2)o1 [Compound I-277, N2-(3-aminosulfonylphenyl)-5-fluoro-N4-[4-(5-methyl-1,3,4-oxadiazol-2-yl)methyleneoxyphenyl]-2,4-pyrimidinediamine]
- IC50: 1.47 µM

Structure (SMILES): Cc1nnc(COc2ccc(Nc3nc(Nc4ccc(F)c(S(N)(=O)=O)c4)ncc3F)cc2)o1 [Compound I-278, N2-(3-Aminosulfonyl-4-fluorophenyl)-5-fluoro-N4-[4-(5-methyl-1,3,4-oxadiazol-2-yl)methyleneoxyphenyl]-2,4-pyrimidinediamine]
- IC50: 2.27 µM

Structure (SMILES): Cc1nc(COc2ccc(Nc3nc(Nc4ccc(C)c(S(N)(=O)=O)c4)ncc3F)cc2)cs1 [Compound I-280, N2-(3-Aminosulfonyl-4-methylphenyl)-5-fluoro-N4-[4-(2-methylthiazol-4-yl)methyleneoxyphenyl]-2,4-pyrimidinediamine]
- IC50: 1.46 µM

Structure (SMILES): Cc1nc(COc2ccc(Nc3nc(Nc4cccc(S(N)(=O)=O)c4)ncc3F)cc2)cs1 [Compound I-281, N2-(3-Aminosulfonylphenyl)-5-fluoro-N4-[4-(2-methylthiazol-4-yl)methyleneoxyphenyl]-2,4-pyrimidinediamine]
- IC50: 0.975 µM
